Experimental data published in ChEMBL document CHEMBL2074198, “Influence of passive permeability on apparent P-glycoprotein kinetics” (Pharm Res, 2000).

Key:
[1] = target: T1, ATP-dependent translocase ABCB1 (Homo sapiens, UniProt P08183); experiment: TP_TRANSPORTER: inhibition of Vinblastine transepithelial transport (basal to apical)(Vinblastine: 0.004 uM, Nicardipine: 60 uM) in Caco-2 cells; assay type: functional, cell-based; conditions: caco-2, 60 µM
[2] = target: T1, ATP-dependent translocase ABCB1; experiment: TP_TRANSPORTER: inhibition of Vinblastine transepithelial transport (basal to apical) (Vinblastine: 0.004 uM, […]: 3000 uM) in Caco-2 cells; assay type: functional, cell-based; conditions: caco-2, 3000 µM

T1 sequence (P08183 whole entry): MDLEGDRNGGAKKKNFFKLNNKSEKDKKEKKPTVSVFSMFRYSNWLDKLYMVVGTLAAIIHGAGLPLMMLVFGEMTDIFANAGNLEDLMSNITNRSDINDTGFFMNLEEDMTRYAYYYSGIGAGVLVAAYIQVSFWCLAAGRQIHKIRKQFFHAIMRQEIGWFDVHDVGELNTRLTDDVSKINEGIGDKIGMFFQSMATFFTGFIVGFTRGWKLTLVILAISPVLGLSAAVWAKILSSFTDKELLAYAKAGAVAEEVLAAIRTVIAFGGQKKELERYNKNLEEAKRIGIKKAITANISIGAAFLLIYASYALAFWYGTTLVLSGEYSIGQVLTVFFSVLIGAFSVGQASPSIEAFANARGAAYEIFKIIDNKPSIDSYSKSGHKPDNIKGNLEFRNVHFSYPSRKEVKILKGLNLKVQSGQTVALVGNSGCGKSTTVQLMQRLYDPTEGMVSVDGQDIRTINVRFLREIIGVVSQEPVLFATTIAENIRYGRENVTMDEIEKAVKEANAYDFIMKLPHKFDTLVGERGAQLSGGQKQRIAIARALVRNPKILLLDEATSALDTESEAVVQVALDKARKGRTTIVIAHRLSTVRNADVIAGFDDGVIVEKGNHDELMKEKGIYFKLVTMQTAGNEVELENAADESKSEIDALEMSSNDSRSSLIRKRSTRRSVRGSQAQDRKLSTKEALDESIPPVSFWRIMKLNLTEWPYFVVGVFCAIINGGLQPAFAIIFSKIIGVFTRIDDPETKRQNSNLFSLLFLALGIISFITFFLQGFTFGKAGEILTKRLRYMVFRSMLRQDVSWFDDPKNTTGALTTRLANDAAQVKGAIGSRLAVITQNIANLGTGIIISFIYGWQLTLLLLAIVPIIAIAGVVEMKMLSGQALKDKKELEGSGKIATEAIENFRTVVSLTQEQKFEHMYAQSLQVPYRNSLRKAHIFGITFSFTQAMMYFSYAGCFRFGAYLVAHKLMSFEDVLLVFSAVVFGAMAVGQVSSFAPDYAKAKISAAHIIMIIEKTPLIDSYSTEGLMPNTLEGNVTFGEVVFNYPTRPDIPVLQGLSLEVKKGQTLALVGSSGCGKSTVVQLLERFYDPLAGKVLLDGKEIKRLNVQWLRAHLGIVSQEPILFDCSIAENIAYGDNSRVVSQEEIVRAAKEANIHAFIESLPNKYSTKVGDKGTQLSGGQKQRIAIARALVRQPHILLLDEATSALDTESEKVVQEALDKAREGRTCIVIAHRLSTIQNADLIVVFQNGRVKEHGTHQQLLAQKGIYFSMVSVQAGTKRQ

Structure (SMILES) | Activity [1] | Activity [2]
COC(=O)C1=C(C)NC(C)=C(C(=O)OCCN(C)Cc2ccccc2)C1c1cccc([N+](=O)[O-])c1 (configuration not stated) [NICARDIPINE] | inhibitor [+] | 
CNC(=C[N+](=O)[O-])NCCSCc1ccc(CN(C)C)o1 [RANITIDINE] |  | inhibitor [+]
